{
  "source": "patent US12201649B2",
  "about": "“Pharmaceutical composition comprising oxidizable biphenol and manganese porphyrin, and method of using the same” (Villanova University, priority 2021, dated 2025)",
  "key": {"[1]": {"tested_on": "NALM6 cells", "experiment": "apoptosis (Annexin-PE) and necrosis (RedDot 2) by flow cytometry, 4 hours", "assay_type": "cell-based", "settings": "tBHQ or 12 μM MnTMPyP alone"}, "[2]": {"tested_on": "Jurkat cells", "experiment": "apoptosis (Annexin-PE) and necrosis (RedDot 2) by flow cytometry, 4 hours", "assay_type": "cell-based, human", "settings": "for effect on Jurkat cells (alive, apoptotic, necrotic): 4 hours", "procedure": "Referring to FIGS. 4, 5, 6, 8, 12 and 15, cells were treated with the indicated compounds or vehicle for 4 hours in RPMI medium with 10% fetal bovine serum (FBS). RPMI medium, also known as RPMI 1640, is a growth medium used in cell culture. In these and other figures, “vehicle” represents when a treatment compound is omitted and replaced with the vehicle that the compound is dissolved in. Thus, when a MnP is omitted, water is added in its place. When an oxidizable phenol is omitted, DMSO is added for a resulting final concentration in the cell media of 0.05% DMSO. Apoptosis was measured using Annexin-PE, and necrosis was measured with RedDot 2. Fluorescence was read on an Accuri C6 flow cytometer with excitation from a 488 nm laser, and FL2 and FL4 filters were used for Annexin-PE and RedDot2, respectively. 10,000 events were acquired. Flow cytometry data was analyzed using Flowlogic software from Inivai Technologies of Australia. […] Percentage of alive, apoptotic, or necrotic cells was determined and graphed as the average±the standard deviation.\nThe combination of tBHQ and MnTMPyP is toxic to Jurkat cells, a CD4+ T-cell leukemic cell line. […] Cells that were alive, apoptotic or necrotic were determined using flow cytometry. Two specimens (biological duplicates) were measured for each sample.\nCells that were alive, apoptotic or necrotic were determined using flow cytometry, with n=2 (biological duplicates).\nReferring to FIG. 12, unlike tBHQ, dtBHQ has no toxicity to Jurkat cells in combination with MnTMPyP. […] Cells that were alive, apoptotic or necrotic were determined using flow cytometry, with n=2 (biological duplicates).\nReferring to FIG. 15, Jurkat cell death upon exposure to MNTE-2-PyP and MnTNBuOE-2-PyP (labelled as Mn2E and Mn2BuOE, respectively, in FIG. 15) are compared with that of exposure to Mn4M. […] Cells that were alive, apoptotic or necrotic were determined using flow cytometry, with n=2 (technical duplicates).\nJurkat cells were treated with 5 mM ascorbic acid or 5 μM tBHQ with or without 12 μM MnTMPyP for 4 h. Apoptosis was measured using Annexin-PE, necrosis with RedDot 2. […]"}, "[3]": {"tested_on": "MDA-MB-231 breast cancer cells", "settings": "24 hours; for efficacy at killing breast cancer cells compared with MnTM4PyP: when combined with tBHQ"}, "[4]": {"tested_on": "MDA-MB-231 breast cancer cells", "experiment": "cells", "settings": "Homo sapiens, MDA-MB-231, 24 h"}, "[5]": {"tested_on": "PC3 prostate cancer cells", "experiment": "cells", "settings": "24 h"}, "[6]": {"tested_on": "Jurkat cells", "experiment": "cells", "settings": "Homo sapiens, 24 h", "description": "Referring to FIG. 16, Jurkat cells were treated with the indicated compounds for 24 hours in RPMI with 2% FBS. Live cells were measured using the CellTiter-Fluor dye, which enters living cells and is cleaved by intracellular proteases to release the fluorescent coumarin molecule. Fluorescence was measured on a ClarioStar Plus plate reader in a 96-well plate format with excitation at 390 nm and emission capture at 505 nm. […] Data are graphed as the average±the standard error, along with the fit.\nThe relative number of viable cells in a sample was determined using CellTiter-Fluor dye with relative fluorescence units (RFU). […] The LC50 value for a compound is the concentration required to kill half of the cells tested after a specified test duration such as 24 hours."}, "[7]": {"settings": "read-out: LC50 for tBHQ in the presence of Mn2BuOE"}},
  "note": "Like-named read-outs stand apart in the source and are kept apart here.",
  "data": [
    {"smiles": "C[n+]1ccc(-c2c3nc(c(-c4cc[n+](C)cc4)c4ccc([nH]4)c(-c4cc[n+](C)cc4)c4nc(c(-c5cc[n+](C)cc5)c5ccc2[nH]5)C=C4)C=C3)cc1.[Mn+3]", "note": "[MnTMPyP, Mn(III)tetrakis(1-methyl-4-pyridyl)porphyrin]", "values": [
      {"measurement": "toxicity to NALM6 cells, compound individually", "setting": "[1]", "result": "low toxicity"},
      {"measurement": "effect on Jurkat cells (alive, apoptotic, necrotic)", "setting": "[2]; 12 μM MnTMPyP alone", "result": "largely unaffected"}
    ]},
    {"smiles": "CCCCOCC[n+]1ccccc1-c1c2nc(c(-c3cccc[n+]3CCOCCCC)c3ccc([nH]3)c(-c3cccc[n+]3CCOCCCC)c3nc(c(-c4cccc[n+]4CCOCCCC)c4ccc1[nH]4)C=C3)C=C2.[Mn+3]", "note": "[Mn2BuOE]", "values": [
      {"measurement": "effectiveness at 1.2 μM versus 12 μM", "setting": "[2]; in combination with 5 μM tBHQ, four hours", "result": "almost as effective at 1.2 μM as it was at 12 μM"},
      {"measurement": "efficacy at killing breast cancer cells compared with MnTM4PyP", "setting": "[3]", "result": "higher efficacy"},
      {"measurement": "concentration at which Mn2BuOE is active", "setting": "[3]; with 20 μM tBHQ", "result": "less than 1 μM"},
      {"measurement": "toxicity of Mn2BuOE alone", "setting": "[3]; without tBHQ, tested concentrations", "result": "not toxic at tested concentrations"}
    ]},
    {"smiles": "CC[n+]1ccccc1-c1c2nc(c(-c3cccc[n+]3CC)c3ccc([n-]3)c(-c3cccc[n+]3CC)c3nc(c(-c4cccc[n+]4CC)c4ccc1[n-]4)C=C3)C=C2.[Mn+3]", "note": "[Mn2TE2]", "values": [
      {"measurement": "efficacy at killing breast cancer cells compared with MnTM4PyP", "setting": "[3]", "result": "higher efficacy"}
    ]},
    {"smiles": "CC(C)(C)c1cc(O)ccc1O", "note": "[tBHQ, tert-butylhydroquinone]", "values": [
      {"measurement": "CC50", "setting": "[4]; read-out: LC50 for tBHQ alone", "result": "> 100", "unit": "µM"},
      {"measurement": "CC50", "setting": "[4]; read-out: LC50 for tBHQ in the presence of MnTMPyP", "result": 20, "unit": "µM"},
      {"measurement": "toxicity to NALM6 cells, compound individually", "setting": "[1]", "result": "low toxicity"},
      {"measurement": "CC50", "setting": "[5]; read-out: LC50 for tBHQ alone", "result": "> 100", "unit": "µM"},
      {"measurement": "CC50", "setting": "[5]; [7]", "result": "16 ± 7", "unit": "µM"},
      {"measurement": "CC50", "setting": "[6]; read-out: LC50 for tBHQ alone", "result": "80 ± 30", "unit": "µM"},
      {"measurement": "CC50", "setting": "[6]; [7]", "result": "1.29 ± 0.04", "unit": "µM"},
      {"measurement": "effect on Jurkat cells (alive, apoptotic, necrotic)", "setting": "[2]; 5 μM to 20 μM tBHQ alone", "result": "largely unaffected"},
      {"measurement": "toxicity of tBHQ alone", "setting": "[3]; at 100 μM tBHQ", "result": "no toxicity observed"}
    ]}
  ]
}
